The term Ki denotes the equilibrium dissociation constant of an inhibitor or competing ligand from its target. Read a high Ki as weaker binding.

Drawing on publication PMC6010129, “Evaluation of sulphonamide derivatives acting as inhibitors of human carbonic anhydrase isoforms I, II and Mycobacterium tuberculosisβ-class enzyme Rv3273” (Journal of Enzyme Inhibition and Medicinal Chemistry, 2018), this text covers Ki for ten molecules.

Test [1] has as its target T1, hCA I (Homo sapiens, UniProt P00915).
T1 construct: gene CA1; cytosolic isoform
The test can be described thus: stopped-flow CO2 hydrase assay. The class given is biochemical. The source says:
stopped-flow CO2 hydrase assay on hCA I

Test [2] concerns the target T2, mtCA 3 (Mycobacterium tuberculosis, UniProt P96878).
T2 construct: beta-class carbonic anhydrase
In words: biochemical. Details: stopped-flow CO2 hydration assay, phenol red absorbance at 557 nm, 15 min pre-incubation, Ki by Cheng-Prusoff. The protocol:
An Sx.18Mv-R Applied Photophysics (Oxford, UK) stopped-flow instrument has been used to assay the catalytic activity of various CA isozymes for CO2 hydration reaction. Phenol red (at a concentration of 0.2 mM) was used as indicator, working at the absorbance maximum of 557 nm, with 10 mM Hepes (pH 7.5) or 10 mM Tris (pH 8.5) as buffers, and 0.1 M Na2SO4 (for maintaining constant ionic strength, which is not inhibitory against these enzymes), following the CA-catalysed CO2 hydration reaction for a period of 10 s at 25 °C. The CO2 concentrations ranged from 1.7 to 17 mM for the determination of the kinetic parameters and […]. For each inhibitor at least six traces of the initial 5–10% of the reaction have been used for determining the initial rate. The uncatalysed rates were determined in the same manner and subtracted from the total observed rates. Stock solutions of inhibitors (10 mM) were prepared in distilled-deionised […] to 1 nM using the assay buffer. Inhibitor and enzyme solutions were pre-incubated together for 15 min (standard assay at room temperature) prior to assay, in order to allow for the formation of the enzyme–inhibitor complex. The inhibition constant (KI), was obtained by considering the classical Michaelis–Menten equation and the Cheng-Prusoff algorithm by using non-linear least squares fitting as reported earlier. The compounds 5 and 6 reported here were investigated as inhibitors of three CAs involved in crucial physiologic processes and known to act as drug targets, i.e. the human (h) isoforms hCA I and II (belonging to the α-CA class) and the bacterial enzyme mtCA3 from Mycobacterium tuberculosis (a β-class CA) (Table 3). Acetazolamide (AAZ), a clinically used sulphonamide has been employed as standard inhibitor in the assay.

The target in test [3] is T3, hCA II (Homo sapiens, UniProt P00918).
T3 construct: gene CA2; cytosolic isoform
The test can be described thus: stopped-flow CO2 hydrase assay. Type of test: biochemical. The source says:
stopped-flow CO2 hydrase assay on hCA II

T2 sequence (P96878 entry or part of it): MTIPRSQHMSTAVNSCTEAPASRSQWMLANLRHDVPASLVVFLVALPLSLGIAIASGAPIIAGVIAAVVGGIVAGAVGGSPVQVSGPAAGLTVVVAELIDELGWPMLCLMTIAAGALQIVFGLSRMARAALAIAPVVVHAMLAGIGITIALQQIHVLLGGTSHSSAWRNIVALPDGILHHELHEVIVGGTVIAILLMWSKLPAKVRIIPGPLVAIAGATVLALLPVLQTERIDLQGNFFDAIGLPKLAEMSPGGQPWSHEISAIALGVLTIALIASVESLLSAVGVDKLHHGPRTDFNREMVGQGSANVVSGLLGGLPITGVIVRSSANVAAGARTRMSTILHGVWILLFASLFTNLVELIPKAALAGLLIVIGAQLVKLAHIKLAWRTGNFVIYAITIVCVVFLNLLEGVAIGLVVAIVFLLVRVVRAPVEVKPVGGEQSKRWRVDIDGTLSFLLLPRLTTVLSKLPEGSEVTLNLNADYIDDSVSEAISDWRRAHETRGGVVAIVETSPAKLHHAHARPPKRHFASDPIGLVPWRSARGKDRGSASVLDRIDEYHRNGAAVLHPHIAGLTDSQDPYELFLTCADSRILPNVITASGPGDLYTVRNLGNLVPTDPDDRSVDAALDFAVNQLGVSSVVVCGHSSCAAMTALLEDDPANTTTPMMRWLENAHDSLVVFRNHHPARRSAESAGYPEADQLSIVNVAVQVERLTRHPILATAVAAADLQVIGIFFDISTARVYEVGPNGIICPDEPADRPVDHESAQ
T1 sequence (P00915 2-261): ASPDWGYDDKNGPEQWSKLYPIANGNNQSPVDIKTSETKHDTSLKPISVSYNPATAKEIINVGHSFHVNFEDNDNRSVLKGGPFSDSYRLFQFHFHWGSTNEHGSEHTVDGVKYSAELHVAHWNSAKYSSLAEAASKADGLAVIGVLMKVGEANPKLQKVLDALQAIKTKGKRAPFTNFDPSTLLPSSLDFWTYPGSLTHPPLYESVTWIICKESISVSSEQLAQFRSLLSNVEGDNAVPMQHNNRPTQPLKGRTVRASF

`CC1=NN(C(=O)CNc2ccc(S(N)(=O)=O)cc2)C(c2ccc(N(C)C)cc2)C1` (stereo not drawn) [5t]: the Ki in test [1] is 842 nM; in test [2] it was 1740 nM; in test [3], 5150 nM.
The matching figures for `CC1=NN(C(=O)CNc2ccc(S(N)(=O)=O)cc2)C(c2cccs2)C1` (stereo not drawn) [5u, 4-((2-(3-Methyl-5-(thiophen-2-yl)-4,5-dihydro-1H-pyrazol-1-yl)-2-oxoethyl)amino)benzenesulphonamide]: 798 nM, 1450 nM and 126 nM.
As for `NS(=O)(=O)c1ccc(NCC(=O)N/N=C/c2ccccc2)cc1` [6a, 4-((2-(2-Benzylidenehydrazinyl)-2-oxoetehyl)amino) benzenesulphonamide], the Ki is 220 nM in test [1], above 10000 nM in test [2] and 549 nM in test [3].
The matching figures for `Cc1ccc(C=NNC(=O)CNc2ccc(S(N)(=O)=O)cc2)cc1` [6b, 4-((2-(2-(4-Methylbenzylidene) hydrazinyl)-2-oxoethyl)amino)benzene sulphonamide]: 266 nM, above 10000 nM and 914 nM.
As for `NS(=O)(=O)c1ccc(NCC(=O)N/N=C/c2ccccc2O)cc1` [6c, 4-((2-(2-(2-Hydroxybenzylidene)hydrazinyl)-2-oxoethyl)amino) benzenesulphonamide], the Ki in test [1] came to 54.6 nM; in test [2] it was 2150 nM; in test [3], 32.1 nM.
Turning to `NS(=O)(=O)c1ccc(NCC(=O)N/N=C/c2ccccn2)cc1` [6d, 4-((2-Oxo-2-(2-(pyridin-2-ylmethylene) hydrazinyl)ethyl)amino) benzenesulphonamide], the figures for the Ki in test [1], in test [2] and in test [3] were 316 nM, above 10000 nM and 418 nM, respectively.
For the molecule `COc1ccc(/C=N/NC(=O)CNc2ccc(S(N)(=O)=O)cc2)cc1` [6f, 4-((2-(2-(4-Methoxybenzylidene) hydrazinyl)-2-oxoethyl)amino) benzenesulphonamide], the Ki in test [1] was determined as 648 nM; in test [2], 2130 nM; in test [3], 703 nM.
For the molecule `COc1cc(/C=N/NC(=O)CNc2ccc(S(N)(=O)=O)cc2)cc(OC)c1O` [6h, 4-((2-(2-(4-Hydroxy-3,5-dimethoxybenzylidene)hydrazinyl)-2-oxoethyl)amino) benzenesulphonamide], the Ki stood at 292 nM in test [1], 2000 nM in test [2] and 483 nM in test [3].
The matching figures for `COc1cc(/C=N/NC(=O)CNc2ccc(S(N)(=O)=O)cc2)cc(OC)c1OC` [6i, 4-((2-Oxo-2-(2-(3,4,5-trimethoxybenzylidene) hydrazinyl)ethyl)amino) benzenesulphonamide]: 890 nM, 216 nM and 446 nM.
`COc1cccc(C=NNC(=O)CNc2ccc(S(N)(=O)=O)cc2)c1OC` [6j, 4-((2-(2-(2,3-Dimethoxybenzylidene)hydrazinyl)-2-oxoethyl)amino)benzenesulphonamide]: the values for the Ki in test [1], in test [2] and in test [3] were 785 nM, 232 nM and 240 nM, respectively.
